Experimental data taken from patent US10858339B2, “Aryl cyclopropyl-amino-isoquinolinyl amide compounds” (priority 2017, dated 2020).
Counter-ions that a name gives are not always drawn. Like-named read-outs stand apart in the source and are kept apart here. Values belong to the compound of their own block, whether it stands above or below them.

Tests used:
JAK3 = molecular target: T1, JAK3 (Homo sapiens, UniProt P52333); assay: JAK kinase assay, JAK3 enzyme; format: biochemical
T1 sequence (P52333 1-1124): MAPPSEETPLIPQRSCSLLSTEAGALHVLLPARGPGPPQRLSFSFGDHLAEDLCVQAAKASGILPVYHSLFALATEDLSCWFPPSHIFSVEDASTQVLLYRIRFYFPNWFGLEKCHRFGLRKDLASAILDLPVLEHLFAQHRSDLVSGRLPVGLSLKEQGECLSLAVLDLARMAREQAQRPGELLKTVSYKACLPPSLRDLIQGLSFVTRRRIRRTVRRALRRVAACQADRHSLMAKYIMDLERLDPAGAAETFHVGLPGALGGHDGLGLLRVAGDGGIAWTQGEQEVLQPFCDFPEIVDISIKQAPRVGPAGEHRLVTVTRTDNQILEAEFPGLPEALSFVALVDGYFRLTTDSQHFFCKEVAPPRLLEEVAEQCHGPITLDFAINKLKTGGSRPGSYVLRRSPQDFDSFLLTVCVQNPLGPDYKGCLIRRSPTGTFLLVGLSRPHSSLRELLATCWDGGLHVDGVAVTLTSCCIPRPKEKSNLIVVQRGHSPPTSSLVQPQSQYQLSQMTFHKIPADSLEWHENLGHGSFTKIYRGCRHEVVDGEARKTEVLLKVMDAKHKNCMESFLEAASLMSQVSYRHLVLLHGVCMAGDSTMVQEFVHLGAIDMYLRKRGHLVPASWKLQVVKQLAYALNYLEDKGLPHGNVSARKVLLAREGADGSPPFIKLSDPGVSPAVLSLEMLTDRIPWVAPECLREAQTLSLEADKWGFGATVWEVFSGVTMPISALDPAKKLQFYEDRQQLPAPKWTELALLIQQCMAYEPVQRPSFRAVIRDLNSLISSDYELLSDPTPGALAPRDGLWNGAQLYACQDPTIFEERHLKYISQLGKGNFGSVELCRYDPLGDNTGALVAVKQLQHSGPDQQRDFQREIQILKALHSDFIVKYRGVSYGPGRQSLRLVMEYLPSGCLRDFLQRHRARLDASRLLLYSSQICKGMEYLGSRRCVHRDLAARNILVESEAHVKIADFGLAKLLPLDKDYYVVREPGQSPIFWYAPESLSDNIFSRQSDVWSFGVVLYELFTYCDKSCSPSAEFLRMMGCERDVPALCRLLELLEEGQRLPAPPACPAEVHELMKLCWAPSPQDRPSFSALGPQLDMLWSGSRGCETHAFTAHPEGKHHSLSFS

IKKb = molecular target: T2, IKKb (Homo sapiens, UniProt O14920); assay: IKKb kinase activity; format: biochemical; conditions: Table 17
T2 sequence (O14920 1-756): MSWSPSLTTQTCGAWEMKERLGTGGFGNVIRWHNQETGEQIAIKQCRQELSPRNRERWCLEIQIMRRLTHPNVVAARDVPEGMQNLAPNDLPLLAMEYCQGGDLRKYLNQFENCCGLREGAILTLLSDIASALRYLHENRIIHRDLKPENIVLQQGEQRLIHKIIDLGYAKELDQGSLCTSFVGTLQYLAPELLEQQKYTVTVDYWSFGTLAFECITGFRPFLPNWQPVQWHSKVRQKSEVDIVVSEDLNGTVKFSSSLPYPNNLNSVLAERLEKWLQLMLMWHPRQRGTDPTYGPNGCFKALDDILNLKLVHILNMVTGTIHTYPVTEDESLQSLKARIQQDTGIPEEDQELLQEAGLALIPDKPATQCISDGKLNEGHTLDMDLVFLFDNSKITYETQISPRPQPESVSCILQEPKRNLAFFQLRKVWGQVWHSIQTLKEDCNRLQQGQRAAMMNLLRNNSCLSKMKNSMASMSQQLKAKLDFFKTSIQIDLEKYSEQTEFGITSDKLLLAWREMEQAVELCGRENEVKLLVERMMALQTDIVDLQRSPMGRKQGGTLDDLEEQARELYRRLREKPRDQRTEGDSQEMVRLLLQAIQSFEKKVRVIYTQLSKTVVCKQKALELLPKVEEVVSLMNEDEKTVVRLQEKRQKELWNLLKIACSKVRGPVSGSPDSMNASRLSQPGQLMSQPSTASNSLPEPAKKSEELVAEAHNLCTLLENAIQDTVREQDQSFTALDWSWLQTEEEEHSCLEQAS

[1] = test system: Porcine Trabecular Meshwork cells (PTM); assay: PTM-HTM assay, actin fiber length in PTM cells; format: cell-based; conditions: Sus scrofa, read-out: PTM
Method: Porcine Trabecular Meshwork cells (PTM) were isolated from freshly obtained enucleated porcine eyes. Immortalized Human Trabecular Meshwork cells (TM-1) were obtained through a kind gift from Donna Peters in the Department of Ophthalmology and Visual Sciences at the University of Wisconsin. Cells were plated onto fibronectin coated glass-bottom 96-well plates and allowed to attach overnight. Media was removed and replaced with test compound in media with 1% fetal bovine serum and incubated for various times. After incubation, cells were formaldehyde fixed, triton solubilized, and stained. PTM cells were stained with Alexa Fluor®488 phalloidin (F-actin) and Hoechst 33342 (nuclei). TM-1 cells were stained with anti-paxillin followed by Alexa Fluor®488 goat-anti-mouse IgG (focal adhesions) and Hoechst 33342 (nuclei). All staining reagents were obtained through Invitrogen. Images were collected on an INCell 2200 imager with a 20× objective. The actin fiber length and total area of focal adhesions were analyzed using custom algorithms developed in the INCell Developer Toolbox, v1.9.3. Data collected were converted to percent of control (untreated cells). Curves were fit to data in GraphPad Prizm using sigmoidal dose-response and constraining top and bottom to 100% and 0%, respectively.

ROCK2 = ROCK2 (Homo sapiens, UniProt O75116); assay: biochemical
ROCK1 = ROCK1 (Homo sapiens, UniProt Q13464); assay: ROCK kinase inhibition assay, ROCK1 enzyme; format: biochemical;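 further: kinase reaction with 0.5 µM final ATP, 75 min at room temperature, remaining ATP read by luminescence, percent of DMSO-only control minus background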
JAK2 = JAK2 (Homo sapiens, UniProt O60674); assay: JAK kinase assay, JAK2 enzyme; format: biochemical;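 further: JAK2 kinase reaction run 75 min at room temperature, leftover ATP read by Kinase-Glo luminescence, 11-point dilution series in 2.5% DMSO, percent of inhibitor-free DMSO control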
Rho Kinase = assay: ROCK kinase inhibition assay (Rho Kinase Activity, isoform not given); format: biochemical; conditions: Table 15, mostly given as ranges
Method: All compounds were initially prepared as 10 mM stocks in anhydrous dimethylsulfoxide (DMSO). A 20 μl aliquot of the 10 mM solutions was transferred to individual wells in column 1 of a 96-well polypropylene microtiter plate (Corning #3363) and diluted with DMSO to give a final compound concentration of 4 mM. Test compounds were then serially diluted 1:5 in DMSO for an 11-point concentration response and further diluted in the assay buffer bringing all compound concentrations to a final range of 100 μM to […] in 2.5% DMSO. The assay was performed in white 96-well, flat-bottom, half-area, non-binding assay plate (Corning #3642) in assay buffer consisting of 20 mM HEPES (pH 7.5), 10 mM MgCl2*6H2O, 100 μM sodium orthovanadate, 0.05% CHAPS and 0.1% bovine serum albumin. A 10 μL aliquot of compound from each well of the intermediate dilution plate and 20 μL of a 2× substrate/enzyme solution containing acceptor substrate (800 nM RSK2 peptide […] (SEQ ID NO: 1)), ROCK2 enzyme (10 nM), or ROCK1 enzyme, and 1,4-Dithiothreitol (DTT, 2 uM) were added to all wells. The reaction was initiated by the addition of 10 μL of 4× stock solution ATP (2 μM). Reactions were thoroughly mixed manually, covered and allowed to incubate at room temperature for 75 min. Protein kinase activity was quantitated using Promega's KINASE-GLO™ luminescent Kinase Assay Kit according to the manufacturer's directions. ATP concentrations remaining in Test wells following the termination of the enzymatic reaction were compared against control wells containing equivalent amounts of DMSO containing no inhibitor (CTRL). […] Percent of Control (POC) values were determined for each concentration of compound tested according to the equation: POC=((Test well value−BKG)/(CTRL−BKG))*100
IC50 values were converted to K; […]

Chain of ROCK1 (Q13464 whole entry, species assumed): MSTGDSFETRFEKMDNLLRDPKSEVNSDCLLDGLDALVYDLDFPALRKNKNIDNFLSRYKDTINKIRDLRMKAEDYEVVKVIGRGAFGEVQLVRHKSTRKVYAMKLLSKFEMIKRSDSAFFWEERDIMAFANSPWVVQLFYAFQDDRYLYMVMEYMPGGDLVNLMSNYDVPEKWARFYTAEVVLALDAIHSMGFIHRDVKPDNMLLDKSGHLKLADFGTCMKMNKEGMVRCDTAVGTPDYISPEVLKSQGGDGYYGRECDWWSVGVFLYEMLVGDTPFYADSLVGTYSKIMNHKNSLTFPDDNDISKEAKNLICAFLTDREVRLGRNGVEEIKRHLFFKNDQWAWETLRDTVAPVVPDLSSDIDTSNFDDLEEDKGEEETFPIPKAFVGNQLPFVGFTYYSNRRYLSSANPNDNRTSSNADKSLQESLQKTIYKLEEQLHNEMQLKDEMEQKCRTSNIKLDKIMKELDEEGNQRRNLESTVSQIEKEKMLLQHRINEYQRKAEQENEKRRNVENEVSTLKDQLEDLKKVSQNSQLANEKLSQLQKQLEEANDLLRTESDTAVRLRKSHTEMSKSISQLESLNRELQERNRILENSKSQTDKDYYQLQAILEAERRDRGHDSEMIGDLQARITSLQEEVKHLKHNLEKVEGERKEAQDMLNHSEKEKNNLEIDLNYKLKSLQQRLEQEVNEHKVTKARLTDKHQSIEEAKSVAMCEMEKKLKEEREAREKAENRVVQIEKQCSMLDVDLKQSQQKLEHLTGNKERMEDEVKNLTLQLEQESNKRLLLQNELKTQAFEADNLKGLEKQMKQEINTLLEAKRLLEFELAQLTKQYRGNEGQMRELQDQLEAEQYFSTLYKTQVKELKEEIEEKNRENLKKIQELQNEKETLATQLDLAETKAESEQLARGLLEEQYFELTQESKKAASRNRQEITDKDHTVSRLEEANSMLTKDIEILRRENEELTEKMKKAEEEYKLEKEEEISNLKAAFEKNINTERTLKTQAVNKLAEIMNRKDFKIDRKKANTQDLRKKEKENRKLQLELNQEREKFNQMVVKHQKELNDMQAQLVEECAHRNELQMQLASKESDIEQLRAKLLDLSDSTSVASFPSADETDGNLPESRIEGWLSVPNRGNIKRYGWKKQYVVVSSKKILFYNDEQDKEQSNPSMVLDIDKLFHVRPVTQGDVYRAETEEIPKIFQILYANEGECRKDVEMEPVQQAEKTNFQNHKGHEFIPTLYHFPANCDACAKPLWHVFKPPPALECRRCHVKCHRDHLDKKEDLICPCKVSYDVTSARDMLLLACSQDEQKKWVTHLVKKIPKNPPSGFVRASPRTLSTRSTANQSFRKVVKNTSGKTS
Chain of ROCK2 (O75116 whole entry, species assumed): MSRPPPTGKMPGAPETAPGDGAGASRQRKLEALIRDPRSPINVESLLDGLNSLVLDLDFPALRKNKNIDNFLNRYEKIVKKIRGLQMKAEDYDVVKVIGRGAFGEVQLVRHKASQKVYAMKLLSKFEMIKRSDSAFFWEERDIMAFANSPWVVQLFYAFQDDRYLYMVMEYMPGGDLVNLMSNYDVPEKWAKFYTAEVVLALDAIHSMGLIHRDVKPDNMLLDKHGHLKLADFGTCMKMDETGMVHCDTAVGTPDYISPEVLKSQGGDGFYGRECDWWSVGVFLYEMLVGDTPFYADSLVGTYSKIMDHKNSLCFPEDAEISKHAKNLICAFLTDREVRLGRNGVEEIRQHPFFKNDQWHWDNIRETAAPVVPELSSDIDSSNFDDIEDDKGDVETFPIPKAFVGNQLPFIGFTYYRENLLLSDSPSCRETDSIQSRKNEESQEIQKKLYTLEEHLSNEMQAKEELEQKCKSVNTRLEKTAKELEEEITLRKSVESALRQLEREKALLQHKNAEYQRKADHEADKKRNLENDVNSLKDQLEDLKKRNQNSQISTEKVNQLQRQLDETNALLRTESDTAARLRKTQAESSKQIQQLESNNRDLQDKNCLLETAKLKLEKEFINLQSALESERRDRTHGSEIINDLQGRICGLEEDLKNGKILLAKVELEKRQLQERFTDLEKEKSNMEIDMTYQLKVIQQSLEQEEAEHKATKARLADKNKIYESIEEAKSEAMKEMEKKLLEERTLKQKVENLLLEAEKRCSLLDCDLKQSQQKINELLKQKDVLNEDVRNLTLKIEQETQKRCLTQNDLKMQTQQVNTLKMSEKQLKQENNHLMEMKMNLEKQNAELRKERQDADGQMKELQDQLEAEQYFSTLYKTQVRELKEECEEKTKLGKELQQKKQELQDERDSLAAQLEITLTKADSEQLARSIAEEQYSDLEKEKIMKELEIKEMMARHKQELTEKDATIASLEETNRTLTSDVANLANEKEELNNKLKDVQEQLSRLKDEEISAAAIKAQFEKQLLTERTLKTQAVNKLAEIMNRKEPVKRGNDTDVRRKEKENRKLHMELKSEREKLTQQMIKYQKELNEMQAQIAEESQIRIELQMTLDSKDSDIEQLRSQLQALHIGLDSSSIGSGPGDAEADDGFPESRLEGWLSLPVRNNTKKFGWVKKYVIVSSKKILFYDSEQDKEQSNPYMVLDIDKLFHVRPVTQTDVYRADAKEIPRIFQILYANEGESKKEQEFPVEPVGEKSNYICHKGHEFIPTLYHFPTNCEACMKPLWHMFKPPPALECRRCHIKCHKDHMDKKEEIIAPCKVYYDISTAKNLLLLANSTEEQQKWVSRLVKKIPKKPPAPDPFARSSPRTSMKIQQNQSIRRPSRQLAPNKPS
Chain of JAK2 (O60674 whole entry, species assumed, canonical isoform): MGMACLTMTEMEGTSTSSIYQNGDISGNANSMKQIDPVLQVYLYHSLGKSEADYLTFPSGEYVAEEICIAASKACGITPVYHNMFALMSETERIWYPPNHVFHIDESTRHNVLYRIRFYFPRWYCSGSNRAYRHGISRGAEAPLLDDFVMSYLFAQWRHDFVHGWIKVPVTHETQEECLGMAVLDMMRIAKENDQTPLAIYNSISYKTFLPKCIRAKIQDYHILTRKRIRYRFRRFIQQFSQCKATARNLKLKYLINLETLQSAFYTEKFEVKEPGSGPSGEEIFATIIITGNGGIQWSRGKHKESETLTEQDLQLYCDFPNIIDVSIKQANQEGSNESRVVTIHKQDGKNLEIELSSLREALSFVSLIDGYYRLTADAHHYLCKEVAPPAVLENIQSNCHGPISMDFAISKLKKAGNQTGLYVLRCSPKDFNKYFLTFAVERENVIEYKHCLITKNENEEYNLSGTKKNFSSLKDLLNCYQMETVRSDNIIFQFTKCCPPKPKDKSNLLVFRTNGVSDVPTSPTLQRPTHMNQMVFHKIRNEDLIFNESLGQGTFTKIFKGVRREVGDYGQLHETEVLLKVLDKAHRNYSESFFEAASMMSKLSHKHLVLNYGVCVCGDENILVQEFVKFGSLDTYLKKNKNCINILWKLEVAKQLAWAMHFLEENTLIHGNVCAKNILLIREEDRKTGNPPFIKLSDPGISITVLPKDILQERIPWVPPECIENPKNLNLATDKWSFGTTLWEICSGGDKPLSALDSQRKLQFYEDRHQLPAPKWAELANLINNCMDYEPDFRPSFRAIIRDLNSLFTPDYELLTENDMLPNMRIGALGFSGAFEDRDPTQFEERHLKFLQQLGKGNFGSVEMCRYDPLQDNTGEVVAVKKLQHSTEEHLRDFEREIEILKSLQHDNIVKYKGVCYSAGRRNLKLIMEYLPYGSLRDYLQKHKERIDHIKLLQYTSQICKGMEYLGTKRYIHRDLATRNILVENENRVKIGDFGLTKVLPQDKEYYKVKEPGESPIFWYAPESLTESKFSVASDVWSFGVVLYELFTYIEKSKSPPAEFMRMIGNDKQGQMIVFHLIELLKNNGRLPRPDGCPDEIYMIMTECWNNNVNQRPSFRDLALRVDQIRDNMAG

SMILES: O=C(Nc1ccc2cnccc2c1)[C@@H]1C[C@H]1c1ccc(S(=O)(=O)Nc2ccccn2)cc1 (racemic)
Ki (JAK3; Table 17, read-out: JAK3): 12 nM

SMILES: O=C(Nc1ccc2cncc(Cl)c2c1)C1CC1c1ccc(S(=O)(=O)Nc2ccccn2)cc1 (racemic) [rel-N-(4-chloroisoquinolin-6-yl)-2-(4-(N-(pyridin-2-yl)sulfamoyl)phenyl)cyclopropane-1-carboxamide]
Ki (IKKb): 9 nM | IC50 ([1]; Table 17, porcine trabecular meshwork cells): 227 nM

Ki (JAK3; Table 17, read-out: JAK3): 160 nM
SMILES: O=C(Nc1ccc2cncc(Cl)c2c1)[C@@H]1C[C@H]1c1ccc(S(=O)(=O)NC[C@@H]2CCCNC2)cc1 (relative stereo) [(rel)-(1R,2R)-N-(4-chloroisoquinolin-6-yl)-2-(4-(N-(((R)-piperidin-3-yl)methyl)sulfamoyl)phenyl)cyclopropane-1-carboxamide dihydrochloride]

Ki (JAK3; Table 17, read-out: JAK3): 1140 nM | Ki (ROCK2; ROCK2, Table 17): 4 nM | Ki (ROCK1; ROCK1, Table 17): 4 nM
SMILES: O=C(Nc1ccc2cnccc2c1)[C@@H]1C[C@H]1c1ccc(S(=O)(=O)NC[C@@H]2CCCNC2)cc1 (relative stereo) [(rel)-(1R,2R)-N-(isoquinolin-6-yl)-2-(4-(N-(((R)-piperidin-3-yl)methyl)sulfamoyl)phenyl) cyclopropane-1-carboxamide dihydrochloride]

Ki (JAK2; Table 17, read-out: JAK2): 650 nM | Ki (ROCK2; ROCK2, Table 17): 175 nM | Ki (ROCK1; ROCK1, Table 17): 270 nM
SMILES: O=C(Nc1ccc2cnccc2c1)[C@@H]1C[C@H]1c1ccc(I)cc1 (relative stereo) [drawing 670, (rel)-(1R,2R)-2-(4-iodophenyl)-N-(isoquinolin-6-yl)cyclopropane-1-carboxamide]

SMILES: O=C(Nc1ccc2cnccc2c1)[C@@H]1C[C@H]1c1ccc(S(=O)(=O)Nc2ccccn2)cc1 (single isomer, unassigned) [Example E266]
Ki (JAK3; Table 16, read-out: JAK3): 12 nM | Ki (ROCK1; ROCK1, Table 16): 9 nM

SMILES: O=C(Nc1ccc2cnccc2c1)[C@@H]1C[C@H]1c1ccc(S(=O)(=O)Nc2ccccn2)cc1 (single isomer, unassigned) [Example E267]
Ki (JAK3; Table 16, read-out: JAK3): 5.8 nM

SMILES: O=C(Nc1ccc2cnccc2c1)[C@@H]1C[C@H]1c1ccc(S(=O)(=O)Nc2ccccn2)cc1 [(1R,2R)-N-(isoquinolin-6-yl)-2-(4-(N-(pyridin-2-yl)sulfamoyl)phenyl) cyclopropane-1-carboxamide]
Ki (JAK3; Table 17, read-out: JAK3): 4.3 nM | IC50 [1]: 61 nM

Ki (Rho Kinase): 4350 to 8400 nM | Ki (JAK2; Table 15, in brackets in the activity cell, read-out: JAK2 activity): 5800 to 13500 nM | Ki (JAK3; Table 15, in brackets in the activity cell, read-out: JAK3 activity): 3400 to 3800 nM
SMILES: O=C(NCc1ccccn1)c1ccc(C2CC(=O)N(c3ccc4cnccc4c3)C2)cc1 (centres unmarked) [Example E233]

Ki (ROCK2; ROCK2, Table 16): 5 nM | Ki (ROCK1; ROCK1, Table 16): 5 nM
SMILES: O=C(Nc1ccc2cnccc2c1)[C@@H]1C[C@H]1c1ccc(S(=O)(=O)NC[C@H]2CCCNC2)cc1 [Example E272]

Ki (JAK3; Table 16, read-out: JAK3): 1140 nM | Ki (ROCK2; ROCK2, Table 16): 4 nM | Ki (ROCK1; ROCK1, Table 16): 4 nM
SMILES: O=C(Nc1ccc2cnccc2c1)[C@@H]1C[C@H]1c1ccc(S(=O)(=O)NC[C@@H]2CCCNC2)cc1 [Example E273]

Ki (JAK3; Table 16, read-out: JAK3): 160 nM
SMILES: O=C(Nc1ccc2cncc(Cl)c2c1)[C@@H]1C[C@H]1c1ccc(S(=O)(=O)NC[C@@H]2CCCNC2)cc1 [Example E274]

Ki (ROCK2; ROCK2, Table 16): 7 nM | Ki (ROCK1; ROCK1, Table 16): 8.2 nM
SMILES: O=C(Nc1ccc2cnccc2c1)[C@@H]1C[C@H]1c1ccc(S(=O)(=O)NC2CCNCC2)cc1 [Example E275]

Ki (ROCK2; ROCK2, Table 16): 31 nM | Ki (ROCK1; ROCK1, Table 16): 48 nM
SMILES: O=C(Nc1ccc2cnccc2c1)[C@@H]1C[C@H]1c1ccc(S(=O)(=O)N2CCNCC2)cc1 [Example E276]

Ki (JAK2; Table 16, read-out: JAK2): 650 nM | Ki (ROCK2; ROCK2, Table 16): 175 nM | Ki (ROCK1; ROCK1, Table 16): 270 nM
SMILES: O=C(Nc1ccc2cnccc2c1)[C@@H]1C[C@H]1c1ccc(I)cc1 [Example E277]

Ki (JAK2; Table 16, read-out: JAK2): 1400 nM | Ki (JAK3; Table 16, read-out: JAK3): 1060 nM | Ki (ROCK2; ROCK2, Table 16): 12.5 nM | Ki (ROCK1; ROCK1, Table 16): 15 nM
SMILES: O=C(Nc1ccc2cnccc2c1)[C@@H]1C[C@H]1c1ccc(F)c(S(=O)(=O)Nc2ccccn2)c1 [Example E280]

Ki (JAK2; Table 16, read-out: JAK2): 3000 nM | Ki (JAK3; Table 16, read-out: JAK3): 7500 nM | Ki (ROCK2; ROCK2, Table 16): 240 nM | Ki (ROCK1; ROCK1, Table 16): 150 nM
SMILES: O=C(Nc1ccc2cnccc2c1)[C@@H]1C[C@H]1c1ccc(F)c(S(=O)(=O)Nc2ccccc2)c1 [Example E281]

Ki (ROCK2; ROCK2, Table 17): 24 nM | Ki (ROCK1; ROCK1, Table 17): 85 nM
SMILES: O=C(Nc1ccc2cnccc2c1)[C@@H]1C[C@H]1c1ccc(S(=O)(=O)Nc2cccnc2)cc1 [drawing 658]

Ki (JAK3; Table 17, read-out: JAK3): 160 nM
SMILES: O=C(Nc1ccc2cncc(Cl)c2c1)[C@@H]1C[C@H]1c1ccc(S(=O)(=O)NC[C@@H]2CCCNC2)cc1 [drawing 666]

Ki (JAK2; Table 17, read-out: JAK2): 1400 nM | Ki (JAK3; Table 17, read-out: JAK3): 1060 nM | Ki (ROCK2; ROCK2, Table 17): 12.5 nM | Ki (ROCK1; ROCK1, Table 17): 15 nM
SMILES: O=C(Nc1ccc2cnccc2c1)[C@@H]1C[C@H]1c1ccc(F)c(S(=O)(=O)Nc2ccccn2)c1 [drawing 673]

Ki (JAK2; Table 17, read-out: JAK2): 3000 nM | Ki (JAK3; Table 17, read-out: JAK3): 7500 nM | Ki (ROCK2; ROCK2, Table 17): 240 nM | Ki (ROCK1; ROCK1, Table 17): 150 nM
SMILES: O=C(Nc1ccc2cnccc2c1)[C@@H]1C[C@H]1c1ccc(F)c(S(=O)(=O)Nc2ccccc2)c1 [drawing 674]
